The subject of one series is PBMC. The series can be described thus: (§1) Cytotoxicity against human PBMC assessed as cell viability after 48 hrs by MTT reduction assay. It counts as cell-based. The settings on record: pbmc, 48 h. (In general: Tetrazolium assays rely on reduction of a dye to a coloured formazan, in cell work by metabolically active cells.)
The test system of series [1] is Leishmania amazonensis. The series can be described thus: Leishmanicidal activity against promastigote form of Leishmania amazonensis assessed as inhibition of parasite growth after 72 hrs by Neubauer's chamber method. It counts as functional, organism-based.
Series [2] can be described thus: as §1. It counts as cell-based. The conditions noted are these: PBMC (peripheral blood mononuclear cells).
The nature of series [3]: Selectivity ratio of CC50 for human PBMC to IC50 for promastigote form of Leishmania amazonensis.
Series [4] has as its system Leishmania amazonensis. As to the kind of experiment: Leishmanicidal activity against promastigote form of Leishmania amazonensis […] assessed as inhibition of parasite growth after 48 hrs by Neubauer's chamber method. It counts as functional, organism-based.

Broadly, the CC50 is the concentration giving 50% cytotoxicity. As usually defined, the IC50 is the point on the concentration scale where inhibition reaches its midpoint. With `O=C(OCC1CCN(Cc2ccc3c(c2)OCO3)CC1)c1ccc(Cl)cc1`, the CC50 result with PBMC is on record as “Non-toxic”. The concentration for half-maximal inhibition (IC50) in the series with Leishmania amazonensis [1] is > 103 µM.
`CCCCCCNC(=O)OCC1CCN(Cc2ccc3c(c2)OCO3)CC1`: the 50% cytotoxic concentration (CC50) at 48 h in series [2] stood at 143 µM. Moreover, in series [3], the “Ratio CC50/IC50” value is listed as 5. The IC50 in the series on Leishmania amazonensis [1] was determined as 28.6 µM.
The corresponding values for `O=C(OCC1CCN(Cc2ccc3c(c2)OCO3)CC1)c1ccc([N+](=O)[O-])cc1` are 356 µM, 20.64 and 17.2 µM.
The like results for `COc1ccc(C(=O)OCC2CCN(Cc3ccc4c(c3)OCO4)CC2)cc1OC` were, in that order, 1720 µM, 39.76 and 43.2 µM.
Consider `O=C(OCC1CCN(Cc2ccc3c(c2)OCO3)CC1)c1ccc(F)cc1`, for which the cytotoxic concentration (CC50) at 48 h in series [2] was determined as 420 µM. The “Ratio CC50/IC50” value in series [3] came to 7.33. The IC50 in the series on Leishmania amazonensis [1] amounted to 57.4 µM.
The corresponding values for `O=C(OCC1CCN(Cc2ccc3c(c2)OCO3)CC1)c1ccc(Br)cc1` are 208 µM, 5.43 and 38.3 µM.
Regarding `O=C(OCC1CCN(Cc2ccc3c(c2)OCO3)CC1)c1ccc2c(c1)OCO2`, the half-maximal cytotoxic concentration (CC50) at 48 h in series [2] came to 362 µM. Besides, in series [3], the “Ratio CC50/IC50” value was found to be 12.88. The IC50 in the series with Leishmania amazonensis [1] was 28.1 µM.
As for `CCNC(=O)OCC1CCN(Cc2ccc3c(c2)OCO3)CC1`, the CC50 at 48 h in series [2] was determined as 2430 µM. The “Ratio CC50/IC50” value in series [3] is on record as <19.48. For the same molecule, in the series on Leishmania amazonensis [1], the 50% inhibitory concentration (IC50) was > 125 µM.
Consider `O=C(/C=C/C=C/c1ccc2c(c1)OCO2)N1CCCCC1` [PIPERINE], for which, in the series with Leishmania amazonensis [4], the half-maximal inhibitory concentration (IC50) amounted to 14.5 µM.
As to `O=C(OCC1CCN(Cc2ccc3c(c2)OCO3)CC1)c1ccccc1`, the 50% cytotoxic concentration (CC50) at 48 h in series [2] was found to be 306 µM. In addition, the “Ratio CC50/IC50” value in series [3] amounted to 3.9. In addition, the IC50 with Leishmania amazonensis [1] worked out at 78.3 µM.
The corresponding values for `O=C(/C=C/c1ccc2c(c1)OCO2)OCC1CCN(Cc2ccc3c(c2)OCO3)CC1` are 950 µM, <10.06 and > 94.5 µM.

These data come from ChEMBL document CHEMBL3600330, “Synthesis and biological evaluation of novel piperidine-benzodioxole derivatives designed as potential leishmanicidal drug candidates” (Bioorg Med Chem Lett, 2015).
